Test results: US12161694B2, “Methods and compositions for regulating innate lymphoid cell inflammatory responses” (The Broad Institute, Inc., priority 2017, dated 2024)
“Also recorded” adds a separate entry of the source. Where no end group is shown, it is not given here.

System: eosinophils
Test: Eosinophils in lung parenchyma and BALF after in vivo treatment (flow cytometry)
Design: species or system mouse
Procedure: Mice and in vivo ILC activation. C57Bl/6J mice were purchased from the Jackson Laboratory. Nmur1-LacZ reporter mice with a LacZ cassette knocked into the Nmur1 locus were rederived from Nmur1^tm1.1(KOMP)Vleg sperm obtained from the trans-NIH Knock-Out Mouse Project (KOMP) Repository. Mice were housed under specific-pathogen-free conditions. For experiments, mice were matched for sex and age, and most mice were 6-10 weeks old. […] The total administered volume was 20 μl for all conditions. Mice were randomly assigned to treatment groups after matching for sex and age. […] Mice were treated intranasally with 10 μg HDM on day 0, 7, 8, and 9, prior to sacrifice on day 10. All experiments were conducted in accordance with animal protocols approved by the Harvard Medical Area Standing Committee on Animals or BWH IACUC.
Flow cytometry. […] Cells were stained on ice with antibodies for surface molecules and the live/dead marker 7AAD and analyzed on a LSRFortessa (BD Biosciences). […]
Lung analysis. […] BALF was centrifuged, and the supernatant was used for analyzing cytokine levels and the cell pellet was resuspended, counted, and used for flow cytometry. […] Where indicated, cells were diluted in 10% Trypan Blue and viable cells counted using a hemocytometer. […]

“Neuromedin U (FRVDEEFQSPFASQSRGYFLFRPRN-NH2; listed as Homo sapiens) [NMU, neuropeptide ligand of Nmur1 (US Biological)]” was tested, and the “eosinophils in BALF” value (intranasal daily for 3 days (500 ng IL-25, 20 μg NMU)) was “only a mild increase; also recorded: small increase” and the “eosinophils in lung parenchyma” value (intranasal daily for 3 days (500 ng IL-25, 20 μg NMU; FIG. 11: 250 ng IL-33, 10 μg NMU)) was “did not increase”.
